The subject of assay [1] is STZ-induced diabetes model. The assay is described as follows: STZ-induced diabetic nephropathy, kidney disease and retinopathy model (28 days treatment).
Assay [2] concerns Human neutrophils. Nature of the assay: Neutrophil adhesion under static conditions. The format is cell-based. As to conditions: fMLP-stimulated adhesion to fibrinogen; method: 40 μM and 80 μM, concentration of the value not stated. The procedure:
Human neutrophils obtained from buffy coats of healthy donors were suspended at 3×10^6/ml in adhesion buffer (PBS containing 1 mM CaCl2)/MgCl2 and 10% FCS, pH 7.2). Neutrophils were preincubated for 30 min at 37° C. with 40 μM and 80 μM of the compounds.
Adhesion assays were performed on 18-well glass slides coated for 18 h at 4° C. with human fibrinogen (20 μg/well in endotoxin-free PBS); 20 μl of cell suspension were added to each well and stimulated for 1 min at 37° C. with 5 μl of fMLP 1 nM final concentration. After washing, adherent cells were fixed in glutaraldehyde 1.5% in PBS and counted by computer-assisted enumeration. Statistical analysis was performed by calculating mean and standard deviation (SD); significance was calculated by unpaired t-test. All statistical analyses were performed using GraphPad Prism 6 (GraphPad Software).

For assay [3], the system named is Human neutrophils. The assay is described as follows: Inhibition of ROS production in human neutrophils (isoluminol chemiluminescence). The format is cell-based. As to conditions: Homo sapiens, Neutrophil, fMLP+TNF-α stimulated PMN. From the text:
NADPH oxidase, located in the plasma membrane and in the membranes of specific granules, produces superoxide anions from which other ROS, such as hydrogen peroxide, singlet oxygen, hypochlorite, and active hydroxyl radicals. ROS are released into the surrounding medium or into a membrane-enclosed subcellular organelle. One quick and sensitive method for measuring the generation of these metabolites is chemiluminescence (CL). Isoluminol amplified CL technique, is very sensitive and widely used to study respiratory burst (mainly extracellular production of ROS) induced in neutrophils.
Human neutrophils were isolated from buffy coats which obtained from healthy donors. The isolated neutrophils (3×10^6/ml) were suspended in Hanks' Balanced Salt Solution (HBSS) with Calcium and Magnesium. Neutrophils were pre-incubated with the compounds at different concentrations (0.1, 0.3, 1, 3 and 10 μM) for 30 min at 37° C. The black 96-well cell culture plates were coated with human fibrinogen (0.25 mg/ml in PBS), and incubated overnight at 4° C. or 2 hr at 37° C. Then the plates were washed with endotoxin-free PBS. The neutrophils were incubated (priming) with TNF-α (20 ng/ml) for 10 minutes at 37° C. Thereupon the 75 μl of cell suspension and 75 μl (Isoluminol+HRP solution) were added to each well. The chemiluminescence was recorded (every 25 sec for 250 sec) after fMLP (1 μM) activation using a Multilabel Reader victor3 (Perkin Elmer, USA). Background values, defined as the mean chemiluminescent values of isoluminol diluted in HBSS, were subtracted from all readings (CPS, count per second). The assays were done in duplicate or triplicate.

A further assay has as its target T1, VEGFR-2 (Homo sapiens, UniProt P35968).
T1 construct: endogenous in cells; host or cells: primary HUVEC
The assay is described as follows: VEGF-165 induced phosphorylation of VEGF-Receptor on HUVEC. The format is cell-based. As to conditions: HUVEC preincubated 60 min, VEGF165 25 ng/mL 2 min; read-out: VEGFR-Phosphorylation inhibition IC50. The procedure: Cell culture: Primary human umbilical vein endothelial cells (HUVECs) were routinely cultured in 0.1% gelatin pre-coated flasks or dishes, up to passage 6. […]
Rabbit primary antibodies for VEGFR-2, p-Tyr1175 were acquired from Cell Signaling Technology (Leiden, The Netherlands). Phospho-VEGFR-2 (Tyr1175) Sandwich ELISA Kit was from Cell Signaling Technology.
[…] Western blot analysis was performed using anti-phospho-VEGFR-2 antibody and total VEGFR-2 was used as a loading control after membrane stripping.
Inhibition of VEGFR-2-phosphorylation results are expressed as IC50 in microM [μM] versus VEGF-treated HUVECs control without inhibitory compound.

The target of another assay is T2, FGF-1 (Homo sapiens, UniProt P05230).
T2 construct: purchased Peprotech 100-17A
The assay is described as follows: FGF-1 induced sprouting of HUVEC, spheroid-based cellular angiogenesis assay. The format is cell-based. As to conditions: FGF-1 25 ng/mL preincubated with compound, 24 h. The procedure:
(§1) Aim of this in vitro method is to assess compounds effects on FGF-2, FGF-1, or VEGF-A induced sprouting of human umbilical vein endothelial cells (HUVEC) in the spheroid-based cellular angiogenesis assay. Before adding the growth factors to the cells, they were preincubated with the compound. Sunitinib was tested as a control (without preincubation).
(§2) IC50 values determined for the tested compounds are expressed in microM [μM] and the values for the inhibition of FGF-1, FGF2 and VEGF-A induced growth (sprouting) are listed after each compound in the examples after chemical characterization.
(§3) Sprouting test was performed on the compounds dissolved in DMSO to reach 100-fold concentrated stock solutions and dissolved in culture media. Sunitinib as reference compound was provided by ProQinase GmbH. Growth factors were purchased from rhFGF-basic (FGF-2), Peprotech, New Jersey, USA, #100-18C, Lot #0415571; rhFGF-acidic (FGF-1), Peprotech, New Jersey, USA, #100-17A, Lot #031207; hVEGF-A165 (ProQinase GmbH, Freiburg, Germany; 05.02.2010) were used for stimulation of HUVEC cells growth.
(§4) Test system: Endothelial cells from human umbilical vein (HUVEC) from pooled donors were stored frozen with 70% medium, 20% FCS, 10% DMSO at about 1×10^6 cells/ampoule. HUVEC cells, primary human umbilical vein endothelial cells (PromoCell, Heidelberg, Germany), were used after passage 3 to 4. Morphology of the cells are adherent, cobblestone-like growing as monolayer and were cultured in endothelial cell growth and basal medium (ECGM/ECBM, PromoCell). The subculture was split 1:3; every 3-5 days, seed out at ca. 1×10^4 cells/cm^2 and incubated at 37° C. with 5% CO2 with a doubling time 24-48 hours
(§5) Dilution of test compounds: 100× concentrated solutions (concerning to the final assay concentrations) of each test compound were prepared with the appropriate solvent (in DMSO or in water). These 100×compound solutions were further diluted in endothelial cell growth and basal medium (ECBM) 1:7.5 to get a 13.33× concentrated solution. 75 μl of the 13.33×solution was subsequently mixed with 25 μl of 40× concentrated stimulus (solved in ECBM), resulting in a 10×concentrated stimulus/compound mixture. This mixture (100 μl) was incubated for 30 min at 37° C. and then added to 900 μl gel, containing the HUVEC spheroids (resulting in the final assay concentration).
(§6) Test method: the experiments were pursued in modification of the originally published protocol (Korff and Augustin: J Cell Sci 112: 3249-58, 1999). In brief, spheroids were prepared as described (Korff and Augustin: J Cell Biol 143: 1341-52, 1998) by pipetting 400 HUVEC in a hanging drop on plastic dishes to allow overnight spheroid aggregation. 50 HUVEC spheroids were then seeded in 0.9 ml of a collagen gel and pipetted into individual wells of a 24 well plate to allow polymerization. The test compounds were preincubated with the growth factors (FGF-1, FGF-2 or VEGF-A final concentration 25 ng/mL) in a 10-fold concentrated solution and subsequently, 100 μl of this solution was added on top of the polymerized gel. All compounds were diluted in solvent (DMSO or water) as 100×stocks first (which means 100×stocks of each final assay concentration were prepared in solvent). Subsequently, these stocks were further diluted in medium (resulting in the 13.33×stocks of each final assay concentration) with final concentrations tested: 100, 50, 25, 12.5, 6.25, 3.13 and 1.56×10^−6 M). Plates were incubated at 37° C. for 24 hours and fixed by adding 4% PFA (Roth, Karlsruhe, Germany).
(§7) Quantification of growth factor inhibition: sprouting intensity of HUVEC spheroids treated with the growth factor and the inhibitors were quantitated by an image analysis system determining the cumulative sprout length per spheroid (CSL).

The target in another assay is T3, FGF-2 (Homo sapiens, UniProt P09038).
T3 construct: purchased Peprotech 100-18C
The assay is described as follows: FGF-2 induced sprouting of HUVEC, spheroid-based cellular angiogenesis assay. It is filed as cell-based. As to conditions: FGF-2 25 ng/mL preincubated with compound, 24 h. The procedure: as §1, §2, §3, §4, §5, §6, §7

[4] abbreviates: day 28 of treatment (week 9), 15 mg/kg IV, Captopril 50 mg/kg PO.
Setting [5] is: day 28 of treatment (week 9), serum, 15 mg/kg IV, Captopril 50 mg/kg PO.

Bounds are passed on as bounds.

The source of these data is patent publication US20230150951A1, “2,5- OR 2,6-DISUBSTITUTED HYDROQUINONE DERIVATIVES WITH AT LEAST ONE CARBOXY, SULFO OR AMIDO GROUP USEFUL AS MEDICAMENTS” (OM PHARMA SA, priority 2020, published 2023).

T1 sequence (P35968 20-1356): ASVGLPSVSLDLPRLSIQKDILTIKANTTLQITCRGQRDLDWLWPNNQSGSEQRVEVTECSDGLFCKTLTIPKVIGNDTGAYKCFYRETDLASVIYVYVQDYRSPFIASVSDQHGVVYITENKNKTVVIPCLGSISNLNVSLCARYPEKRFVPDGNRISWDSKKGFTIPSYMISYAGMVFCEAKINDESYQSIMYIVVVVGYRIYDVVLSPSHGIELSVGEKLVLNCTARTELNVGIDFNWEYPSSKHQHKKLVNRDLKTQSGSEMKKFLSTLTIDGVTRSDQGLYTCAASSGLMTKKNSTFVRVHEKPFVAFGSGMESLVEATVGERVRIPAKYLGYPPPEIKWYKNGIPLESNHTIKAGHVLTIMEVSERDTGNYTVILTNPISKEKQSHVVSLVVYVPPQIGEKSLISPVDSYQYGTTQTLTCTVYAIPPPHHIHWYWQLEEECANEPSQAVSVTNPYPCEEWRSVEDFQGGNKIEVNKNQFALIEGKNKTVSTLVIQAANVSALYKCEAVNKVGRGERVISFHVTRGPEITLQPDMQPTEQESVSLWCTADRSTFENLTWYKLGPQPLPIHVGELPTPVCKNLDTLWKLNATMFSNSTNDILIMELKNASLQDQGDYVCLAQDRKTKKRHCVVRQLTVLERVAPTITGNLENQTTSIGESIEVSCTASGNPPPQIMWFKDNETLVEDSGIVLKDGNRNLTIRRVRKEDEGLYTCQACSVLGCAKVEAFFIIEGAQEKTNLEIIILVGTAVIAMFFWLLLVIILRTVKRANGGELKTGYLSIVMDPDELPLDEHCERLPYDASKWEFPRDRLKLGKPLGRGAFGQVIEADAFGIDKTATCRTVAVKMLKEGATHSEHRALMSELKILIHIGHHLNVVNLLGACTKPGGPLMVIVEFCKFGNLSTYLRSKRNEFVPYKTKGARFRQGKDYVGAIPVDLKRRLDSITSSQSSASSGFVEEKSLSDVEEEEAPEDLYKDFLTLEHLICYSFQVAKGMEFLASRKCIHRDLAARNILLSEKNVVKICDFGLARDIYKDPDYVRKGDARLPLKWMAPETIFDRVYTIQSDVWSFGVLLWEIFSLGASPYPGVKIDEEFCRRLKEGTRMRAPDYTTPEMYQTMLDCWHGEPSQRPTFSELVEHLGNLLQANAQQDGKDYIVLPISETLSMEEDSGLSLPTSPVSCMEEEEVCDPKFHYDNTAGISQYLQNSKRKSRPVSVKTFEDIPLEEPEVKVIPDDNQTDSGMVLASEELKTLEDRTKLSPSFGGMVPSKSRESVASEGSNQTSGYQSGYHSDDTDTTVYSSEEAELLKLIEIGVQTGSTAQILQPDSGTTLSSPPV
T2 sequence (P05230 whole entry): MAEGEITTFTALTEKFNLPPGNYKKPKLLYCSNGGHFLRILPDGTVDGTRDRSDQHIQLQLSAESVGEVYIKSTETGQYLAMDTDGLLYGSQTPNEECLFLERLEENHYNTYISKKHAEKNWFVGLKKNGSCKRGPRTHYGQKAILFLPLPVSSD
T3 sequence (P09038 134-288): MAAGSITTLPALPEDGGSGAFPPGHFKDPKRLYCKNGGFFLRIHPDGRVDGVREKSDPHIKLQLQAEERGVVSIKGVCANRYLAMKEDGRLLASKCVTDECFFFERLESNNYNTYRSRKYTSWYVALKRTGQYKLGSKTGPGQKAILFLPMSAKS

For `C[C@H](CS)C(=O)N1CCC[C@H]1C(=O)O` [Captopril, reference compound], in assay [1] (28 days of treatment, vs vehicle induced controls), the “Serum CRP” value is “significantly reduced”. Also, the “Mean day 0 blood glucose Concentration (mmol/L) (SD)” value in assay [1] (day 0, 15 mg/kg IV, Captopril 50 mg/kg PO) is reported as 23.7 (6.9) mmol/L. Further, the “Mean day 28 blood glucose Concentration (mmol/L) (SD)” value in assay [1] (day 28, 15 mg/kg IV, Captopril 50 mg/kg PO) was 32.2 (2.3) mmol/L. Further, in assay [1] (setting [4]), the “Blood BUN” value was 28.5 ± 7.6; the “Disease Score (kidney, H&E)” value came to 6 ± 1; the “Eye area (retinal flatmount area covered by vasculature)” value is on record as 11.8 ± 1.4; the “Trichrome staining (Kidney fibrosis)” value amounted to 1.98 ± 0.47. Also, in assay [1] (setting [5]), the “Blood CRP” value is recorded as 4534 ± 821, the “Blood IL-6” value is listed as 125.56 ± 15.75, the “Blood TGF-beta” value was determined as 14.55 ± 2.86 and the “Blood TNF-alpha” value is listed as 415 ± 51.7. Besides, the “Urine albumine creatinine ratio (ALB:CRE)” value in assay [1] (day 28 of treatment (week 9), urine pooled per group, 15 mg/kg IV, Captopril 50 mg/kg PO) is 24.40.
As to `CCOC(=O)Cc1cc(O)c(C(=O)Nc2ccccc2-c2nnn[nH]2)cc1O` [IIIa-001aTz-E1, ethyl (4-(2-(1H-tetrazol-5-yl)phenylaminocarbonyl)-2,5-dihydroxyphenyl)acetate], the Neutrophil adhesion inhibition in the assay on Human neutrophils [2] was found to be 91.76%. Further, in the assay with Human neutrophils [3], the inhibition – broadly, the drop in the measured response relative to a control, in per cent – at 0.3 µM came to 70%. In addition, the IC50 (in general, the midpoint of a concentration-inhibition curve) was 0.32 µM on VEGFR-2 and at least 200 µM on FGF-1.
In turn, `CCOC(=O)Cc1cc(O)c(C(=O)Nc2cc(NC(=O)c3cc(O)c(CC(=O)OCC)cc3O)cc(C(=O)OC)c2)cc1O` [IIIb-010a-E3, methyl 3,5-bis(4-(ethoxycarbonylmethyl)-2,5-dihydroxybenzamido)benzoate] gave a Neutrophil adhesion inhibition with Human neutrophils [2] of 0%. Also, the IC50 on VEGFR-2 is 0.65 µM.
`O=C(O)c1cc(O)c(CNCc2cc(O)c(C(=O)O)cc2O)cc1O` [IIIc-056a, Bis(4-carboxy-2,5-dihydroxyphenylmethyl)amine] registered a Neutrophil adhesion inhibition in the assay on Human neutrophils [2] of 35%. At FGF-2, the IC50 turned out to be 35 µM. Also, the inhibition at 0.3 µM with Human neutrophils [3] is 90.1%.
As to `CCOC(=O)c1cc(O)c(CN(Cc2cc(O)c(C(=O)OCC)cc2O)Cc2cc(O)c(C(=O)OCC)cc2O)cc1O` [IIIc-061a-E3], the Neutrophil adhesion inhibition in the assay on Human neutrophils [2] was 10.4%. Further, on VEGFR-2, the IC50 was found to be 0.34 µM.
The compound `O=C(O)c1cc(O)cc(C(=O)Nc2ccccc2S(=O)(=O)O)c1O` [IIa-001c, 2,5-dihydroxy-3-(2-sulfophenylaminocarbonyl)benzoic acid] returned a Neutrophil adhesion inhibition with Human neutrophils [2] of 43.53%. At FGF-2, the IC50 was 71 µM. The same compound registered an inhibition at 0.3 µM in the assay with Human neutrophils [3] of 72.6%.
The compound `O=C(O)c1cccc(NC(=O)c2cc(O)cc(C(=O)O)c2O)c1` [IIa-002a, 3-(3-carboxyphenylaminocarbonyl)-2,5-dihydroxybenzoic acid] yielded a Neutrophil adhesion inhibition in the assay on Human neutrophils [2] of 17.39%. For the same compound, the results for the IC50 on FGF-2, in the assay on Human neutrophils [3] and at FGF-1 were 131 µM, 0.299 µM and 19 µM, respectively. Also, the inhibition at 0.3 µM in the assay on Human neutrophils [3] stood at 43.3%.
For `O=C(O)c1cc(NC(=O)c2cc(O)cc(C(=O)O)c2O)cc(C(=O)O)c1` [IIa-015a, 5-(3-carboxy-2,5-dihydroxybenzamido)isophthalic acid], the IC50 at FGF-2 was determined as 125 µM.
In the assay with Human neutrophils [2], `CCOC(=O)Cc1ccccc1NC(=O)c1cc(O)cc(C(=O)OCC)c1O` [IIa-034a-E2, ethyl 3-(2-(ethoxycarbonylmethyl)phenylaminocarbonyl)-2,5-dihydroxybenzoate] showed a Neutrophil adhesion inhibition of 11.86%. The half-inhibitory concentration (IC50) at FGF-2 stood at 164 µM. The compound further came in with an inhibition at 0.3 µM in the assay with Human neutrophils [3] of 68.7%.
Turning to `O=C(O)c1cc(O)c(C(=O)Nc2cccc(S(=O)(=O)O)c2)cc1O` [Ia-002c, 2,5-dihydroxy-4-(3-sulfophenylaminocarbonyl)benzoic acid], the Neutrophil adhesion inhibition in the assay on Human neutrophils [2] stood at 1.87%. This compound displayed an inhibition at 0.3 µM in the assay on Human neutrophils [3] of 38.9%. The IC50 was 0.405 µM in the assay with Human neutrophils [3], at least 100 µM at VEGFR-2 and 14 µM at FGF-1.
The compound `O=C(O)c1ccc(NC(=O)c2cc(O)c(C(=O)O)cc2O)cc1` [Ia-003a, 4-(4-carboxyphenyl-aminocarbonyl)-2,5-dihydroxybenzoic acid] returned a Neutrophil adhesion inhibition with Human neutrophils [2] of 39.1%. In addition, the IC50 on FGF-2 was 34 µM; in the assay with Human neutrophils [3], 0.414 µM; at FGF-1, 12 µM. Also, testing at 0.3 µM in the assay with Human neutrophils [3] gave an inhibition of 44.4%.
On to `O=C(O)c1cc(O)c(C(=O)Nc2ccc(S(=O)(=O)O)cc2)cc1O` [Ia-003c, 2,5-dihydroxy-4-(4-sulfophenylaminocarbonyl)benzoic acid], for which the figures for the IC50 at VEGFR-2 and on FGF-1 were 0.4 µM and 35 µM, respectively.
On to `O=C(O)Cc1ccc(NC(=O)c2cc(O)c(C(=O)O)cc2O)cc1` [Ia-032a, 4-(4-(carboxymethyl)phenylaminocarbonyl)-2,5-dihydroxybenzoic acid], for which the IC50 was 91 µM at FGF-2 and at least 100 µM at VEGFR-2.
